Test results reported in US20070259860A1, “MGluR5 modulators V” (AstraZeneca AB, priority 2006, published 2007).

How the values were obtained:
[1] = target: T1, human mGluR5d (Homo sapiens, UniProt P41594); assay: FLIPR assay, mGluR5 antagonism in cells expressing human mGluR5d; format: cell-based; details: intracellular calcium mobilization, read-out: FLIPR hmGluR5d
T1 construct: expressed in transfected cells
From the text: The properties of the compounds of the invention can be analyzed using standard assays for pharmacological activity. Examples of glutamate receptor assays are well known in the art as described in for example Aramori et al., Neuron 8:757 (1992), Tanabe et al., Neuron 8:169 (1992), Miller et al., J. Neuroscience 15: 6103 (1995), Balazs, et al., J. Neurochemistry 69:151 (1997). The methodology described in these publications is incorporated herein by reference. Conveniently, the compounds of the invention can be studied by means of an assay (FLIPR) that measures the mobilization of intracellular calcium, [Ca^2+]i in cells expressing mGluR5 or another assay (IP3) that measures inositol phosphate turnover.
Cells expressing human mGluR5d as described in WO97/05252 are seeded at a density of 100,000 cells per well on collagen coated clear bottom 96-well plates with black sides and experiments are done 24 h following seeding. All assays are done in a buffer containing 127 mM NaCl, 5 mM KCl, 2 mM MgCl2, 0.7 mM NaH2PO4, 2 mM CaCl2, 0.422 mg/ml NaHCO3, 2.4 mg/ml HEPES, 1.8 mg/ml glucose and 1 mg/ml BSA Fraction IV (pH 7.4). Cell cultures in the 96-well plates are loaded for 60 minutes in the above mentioned buffer containing 4 μM of the acetoxymethyl ester form of the fluorescent calcium indicator fluo-3 (Molecular Probes, Eugene, Oreg.) in 0.01% pluronic acid (a proprietary, non-ionic surfactant polyol—CAS Number 9003-11-6). Following the loading period the fluo-3 buffer is removed and replaced with fresh assay buffer. FLIPR experiments are done using a laser setting of 0.800 W and a 0.4 second CCD camera shutter speed with excitation and emission wavelengths of 488 nm and 562 nm, respectively. Each experiment is initiated with 160 μl of buffer present in each well of the cell plate. A 40 μl addition from the antagonist plate was followed by a 50 μL addition from the agonist plate. A 90 second interval separates the antagonist and agonist additions. The fluorescence signal is sampled 50 times at 1 second intervals followed by 3 samples at 5 second intervals immediately after each of the two additions. Responses are measured as the difference between the peak height of the response to agonist, less the background fluorescence within the sample period. IC50 determinations are made using a linear least squares fitting program.

[2] = Determination of brain to plasma ratio in rat; format: in vivo; details: brain and plasma, female Sprague Dawley rats, read-out: Brain/Plasma Ratio of compound in Rat
Experimental: Brain to plasma ratios are estimated in female Sprague Dawley rats. The compound is dissolved in water or another appropriate vehicle. For determination of brain to plasma ratio the compound is administrated as a subcutaneous, or an intravenous bolus injection, or an intravenous infusion, or an oral administration. At a predetermined time point after the administration a blood sample is taken with cardiac puncture. The rat is terminated by cutting the heart open, and the brain is immediately retained. The blood samples are collected in heparinized tubes and centrifuged within 30 minutes, in order to separate the plasma from the blood cells. The plasma is transferred to 96-well plates and stored at −20° C. until analysis. The brains are divided in half, and each half is placed in a pre-tarred tube and stored at −20° C. until analysis. Prior to the analysis, the brain samples are thawed and 3 ml/g brain tissue of distilled water is added to the tubes. The brain samples are sonicated in an ice bath until the samples are homogenized. Both brain and plasma samples are precipitated with acetonitrile. After centrifugation, the supernatant is diluted with 0.2% formic acid. Analysis is performed on a short reversed-phase HPLC column with rapid gradient elution and MSMS detection using a triple quadrupole instrument with electrospray ionisation and Selected Reaction Monitoring (SRM) acquisition. Liquid-liquid extraction may be used as an alternative sample clean-up. The samples are extracted, by shaking, to an organic solvent after addition of a suitable buffer. An aliquot of the organic layer is transferred to a new vial and evaporated to dryness under a stream of nitrogen. After reconstitution of the residuals the samples are ready for injection onto the HPLC column.

[3] = target: hERG-encoded potassium channel (Homo sapiens, UniProt Q12809); assay: hERG IonWorks; format: cell-based
[4] = In vitro stability in human liver microsomes (CLint); format: in vitro ADME; details: pH 7.4, 0.5 mg/mL protein, 1.0 μmol/L compound, NADPH
Experimental: Rat liver microsomes are prepared from Sprague-Dawley rats liver samples. Human liver microsomes are either prepared from human liver samples or acquired from BD Gentest. The compounds are incubated at 37° C. at a total microsome protein concentration of 0.5 mg/mL in a 0.1 mol/L potassium phosphate buffer at pH 7.4, in the presence of the cofactor, NADPH (1.0 mmol/L). The initial concentration of compound is 1.0 μmol/L. Samples are taken for analysis at 5 time points, 0, 7, 15, 20 and 30 minutes after the start of the incubation. The enzymatic activity in the collected sample is immediately stopped by adding a 3.5 times volume of acetonitrile. The concentration of compound remaining in each of the collected samples is determined by means of LC-MS. The elimination rate constant (k) of the mGluR5 inhibitor is calculated as the slope of the plot of In[mGluR5 inhibitor] against incubation time (minutes). The elimination rate constant is then used to calculate the half-life (T ½) of the mGluR5 inhibitor, which is subsequently used to calculate the intrinsic clearance (CLint) of the mGluR5 inhibitor in liver microsomes as:
CLint.=(ln2×incubation volume)/(T½×protein concentration)=μl/min/mg

T1 sequence (P41594 21-942 isoform P41594-3 limits assumed): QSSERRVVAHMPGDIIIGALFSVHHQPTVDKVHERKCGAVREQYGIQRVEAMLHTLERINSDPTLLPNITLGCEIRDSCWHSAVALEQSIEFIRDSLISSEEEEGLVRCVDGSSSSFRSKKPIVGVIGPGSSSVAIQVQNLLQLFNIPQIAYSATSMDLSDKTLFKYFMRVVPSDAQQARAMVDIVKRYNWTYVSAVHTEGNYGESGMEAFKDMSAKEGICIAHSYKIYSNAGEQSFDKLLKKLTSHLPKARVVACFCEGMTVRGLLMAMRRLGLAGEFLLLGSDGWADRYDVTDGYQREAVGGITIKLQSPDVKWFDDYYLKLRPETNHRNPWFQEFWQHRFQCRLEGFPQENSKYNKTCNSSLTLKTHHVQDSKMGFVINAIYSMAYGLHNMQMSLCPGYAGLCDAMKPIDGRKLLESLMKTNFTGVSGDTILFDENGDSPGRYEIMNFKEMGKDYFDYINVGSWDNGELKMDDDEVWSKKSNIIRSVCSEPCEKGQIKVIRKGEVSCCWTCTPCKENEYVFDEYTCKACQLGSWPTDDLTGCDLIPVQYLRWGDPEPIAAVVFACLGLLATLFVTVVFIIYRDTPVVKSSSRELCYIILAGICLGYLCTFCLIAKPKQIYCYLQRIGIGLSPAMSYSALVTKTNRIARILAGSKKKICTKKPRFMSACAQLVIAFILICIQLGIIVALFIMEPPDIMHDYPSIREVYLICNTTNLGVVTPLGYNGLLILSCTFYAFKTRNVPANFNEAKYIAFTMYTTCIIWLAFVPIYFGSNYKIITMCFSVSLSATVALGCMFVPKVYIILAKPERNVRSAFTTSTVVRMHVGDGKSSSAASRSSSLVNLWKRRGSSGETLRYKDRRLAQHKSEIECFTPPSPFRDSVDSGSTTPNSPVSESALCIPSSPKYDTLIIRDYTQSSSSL
Sequence of hERG-encoded potassium channel (Q12809 whole entry): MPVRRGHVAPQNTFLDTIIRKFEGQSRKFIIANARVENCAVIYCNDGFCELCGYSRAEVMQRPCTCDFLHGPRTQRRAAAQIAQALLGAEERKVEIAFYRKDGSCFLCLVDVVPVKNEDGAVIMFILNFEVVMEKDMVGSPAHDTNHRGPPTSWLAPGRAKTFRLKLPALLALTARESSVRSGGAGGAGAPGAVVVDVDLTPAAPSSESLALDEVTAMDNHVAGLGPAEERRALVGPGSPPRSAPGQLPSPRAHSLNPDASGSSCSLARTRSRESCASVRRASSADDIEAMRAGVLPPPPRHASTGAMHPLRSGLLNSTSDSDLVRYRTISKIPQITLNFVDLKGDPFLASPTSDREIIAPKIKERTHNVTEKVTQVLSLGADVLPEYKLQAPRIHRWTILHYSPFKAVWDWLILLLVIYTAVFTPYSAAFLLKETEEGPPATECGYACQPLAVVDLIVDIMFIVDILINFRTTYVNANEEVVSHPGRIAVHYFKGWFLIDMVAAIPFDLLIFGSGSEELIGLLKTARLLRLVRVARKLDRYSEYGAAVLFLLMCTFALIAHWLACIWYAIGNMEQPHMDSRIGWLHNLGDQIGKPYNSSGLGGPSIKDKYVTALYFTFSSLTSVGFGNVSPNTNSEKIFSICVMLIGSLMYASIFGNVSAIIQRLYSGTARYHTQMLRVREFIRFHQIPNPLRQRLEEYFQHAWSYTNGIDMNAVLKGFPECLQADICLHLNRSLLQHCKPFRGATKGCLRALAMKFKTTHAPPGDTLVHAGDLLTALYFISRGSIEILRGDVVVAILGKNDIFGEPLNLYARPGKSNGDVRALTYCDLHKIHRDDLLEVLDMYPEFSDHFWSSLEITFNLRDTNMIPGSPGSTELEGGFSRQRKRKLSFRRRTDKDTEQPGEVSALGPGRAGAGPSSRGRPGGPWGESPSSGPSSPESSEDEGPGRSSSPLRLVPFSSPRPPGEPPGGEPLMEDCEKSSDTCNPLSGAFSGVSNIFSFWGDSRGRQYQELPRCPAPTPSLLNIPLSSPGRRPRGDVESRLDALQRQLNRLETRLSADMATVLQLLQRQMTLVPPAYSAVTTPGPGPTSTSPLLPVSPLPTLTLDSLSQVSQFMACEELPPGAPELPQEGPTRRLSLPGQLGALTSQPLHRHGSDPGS

Row | IC50 [1] | Kp [2] | microsomal CLint at 1 μmol/L [4] | SMILES | hERG IonWorks [3]
1 | 37 nM | 0.005 | < 12 µL/min/mg | Cc1cccc(-n2nnc(CN3CCCn4c(-c5cccnc5)nnc43)n2)c1 [Example 35.1, 3-Pyridin-3-yl-8-(2-m-tolyl-2H-tetrazol-5-ylmethyl)-5,6,7,8-tetrahydro-[1,2,4]triazolo[4,3-a]pyrimidine] | 26 µM
2 | 44 nM | 0.11 | 14 µL/min/mg | Clc1cccc(-c2nc(CN3CCCn4c(-c5cncnc5)nnc43)no2)c1 [Example 35.17, 8-[5-(3-Chloro-phenyl)-[1,2,4]oxadiazol-3-ylmethyl]-3-pyrimidin-5-yl-5,6,7,8-tetrahydro-[1,2,4]triazolo[4,3-a]pyrimidine] | 22 µM
3 | 52 nM | 0.05 | – | Clc1cccc(-c2nc(CN3CCCn4c(-c5cccnc5)nnc43)no2)c1 [Example 35.2, 8-{[5-(3-chlorophenyl)-1,2,4-oxadiazol-3-yl]methyl}-3-pyridin-3-yl-5,6,7,8-tetrahydro[1,2,4]triazolo[4,3-a]pyrimidine] | –
4 | 34 nM | – | < 12 µL/min/mg | C[C@H](c1cc(-c2cccc(Cl)c2)on1)N1CCCn2c(-c3cn[nH]c(=O)c3)nnc21 [Example 59.3, 5-(8-{1-[5-(3-Chloro-phenyl)-isoxazol-3-yl]-ethyl}-5,6,7,8-tetrahydro-[1,2,4]triazolo[4,3-a]pyrimidin-3-yl)-2H-pyridazin-3-one] | 15 µM
